Assay results from patent US4734409A, “Cephalosporin derivative, process for producing the same and pharmaceutical composition containing the same” (Kureha Kagaku Kogyo Kabushiki Kaisha, priority 1984, dated 1988).

Legend:
[1] = tested on: Staphylococcus aureus IAM 1011; test: Antibacterial activity, agar plate dilution method: S. aureus IAM 1011; type: cell-based; settings: Mueller-Hinton agar, 10^6 cells/ml, 37° C., 18 to 24 hours
Protocol: (§1) Antibacterial activity of the present compound was examined by agar plate dilution method while following the standard method of Japan Society of Chemotherapy and using the following strain: 2. Staphylococcus aureus IAM 1011 Namely, after inoculating each bacteria on Mueller-Hinton culture medium, the inoculum was incubated for 18 to 48 hours at 37° C. and after adjusting the number of cells of each bacteria so as to contain 10^6 in one ml, the thus prepared specimen was used as the test bacterial liquid. Each of the present substances (the substance in Example 1 and the substance in Example 2) was dispersed in aqueous physiological saline solution at a predetermined concentration and the thus prepared dispersion was added to 9 times by volume of the culture medium for examining sensitivity (Mueller-Hinton culture medium) to prepare agar plates. On each agar plate, each of the test bacterial liquid was smeared at a width of about 2 cm, and the thus smeared agar plate was incubated for 18 to 24 hours at 37° C.

[2] = tested on: Serratia marcescens IAM 1223; test: Antibacterial activity, agar plate dilution method: S. marcescens IAM 1223; type: cell-based; settings: Mueller-Hinton agar, 10^6 cells/ml, 37° C., 18 to 24 hours
Protocol: as §1, with “6. Serratia marcescens” for “2. Staphylococcus aureus”, “1223” for “1011”

in vitro = in vitro ADME, Staphylococcus aureus; settings: rat, s9
Protocol: (§2) As a model experiment for verifying the stability of the present compound in Example 1 in the living body, the following procedures were adopted. The same test solution of the present compound as in Example 6 was prepared by mixing 0.1 ml of the dispersion of the present compound and 0.9 ml of S-9 mix, and shaking the mixture for 20 min at 37° C. As a control, a mixture of 0.1 ml of the dispersion of the present compound and 0.9 ml of the 0.2M phosphoric acid buffer was shaken for 20 min at 37° C. As the test bacteria, Staphylococcus aureus IAM 1011 was inoculated in Mueller-Hinton culture medium, and after incubating the inoculum for 18 hours at 37° C., the number of bacteria in the medium was adjusted to 10^8 /ml and the thus adjusted, cultured medium was mixed with 50 times by volume of Mueller-Hinton culture medium. After preparing an agar plate from the mixture, a penicillin cup of 8 mm in diameter was placed on the agar plate, and 0.1 ml of the test solution prepared above was put into the cup. After leaving the thus prepared agar plate for 2 hours at 4° C., the agar plate was subjected to culture for 18 hours at 37° C. to measure the diameter of a proliferation-inhibiting circle appearing on the agar plate. From a calibration curve preliminarily prepared between the concentration of the present compound and the diameter of the proliferation-inhibiting circle, the concentration of the present compound in the test solution and the control was obtained. By using the thus obtained concentration, the rate of retaining the antibacterial activity (Rate (%)) was calculated from the following formula and is shown in Table 5. [formula] As a comparative experiment, the same precedures were carried out except for using Cefotax (a commercialized cephalosporin derivative sold by CHUGAI Pharmaceuticla Co., Ltd., which is represented by the following formula), [drawing 21] instead of the present compound produced in Example 1.

[3] = tested on: Staphylococcus aureus IAM 1011; test: in vitro; type: in vitro ADME
Protocol: as §2

Escherichia coli = test: Effect on the intestinal bacterial colonies: E. coli in feces; type: in vivo, Escherichia coli (feces of female ICR-JCL mice); settings: after administration; 100 mg/kg orally once a day, 2 days; before administration 6.4
Protocol: (§3) Effect of the present compound on the intestinal bacterial colonies was examined as follows.
(§4) The present compound prepared in Example 2 was orally administered to each of 5 animals of a group of female ICR-JCL mice of 6-weeks-old at a daily dosage of 100 mg/kg once a day for continuous 2 days. Feces of each of the mice were collected before and after one day of the administration, and after diluting thereof with 100 times by weight of an anaerobic diluent (an aqueous phosphoric acid buffer) the thus diluted feces were ground, and 0.1 ml of the thus ground and diluted feces was smeared on each culture medium for each bacterial species (shown in Table 1).
(§5) After incubating the thus prepared culture media at 25° C. for one to five days aerobically in the cases of Escherichia coli, Pseudomonas aeruginosa and the Streptococcus species or anaerobically in the cases of the Lactobacillus acidophilus, Lactobacillus bifidus and the Bacterioides species, the number of each bacteria proliferating on the culture medium was counted.
DHL aerobic, 37° C., one day

Pseudomonas aeruginosa = test: Effect on the intestinal bacterial colonies: P. aeruginosa in feces; type: in vivo, Pseudomonas aeruginosa (feces of female ICR-JCL mice); settings: after administration; 100 mg/kg orally once a day, 2 days; before administration <3.0
Protocol: as §3, §4, §5
(2) Pseudomonas aeruginosa

Streptococcus sp. = test: Effect on the intestinal bacterial colonies: Streptococcus sp. in feces; type: in vivo, Streptococcus sp. (feces of female ICR-JCL mice); settings: after administration; 100 mg/kg orally once a day, 2 days; before administration 6.8
Protocol: as §3, §4, §5
TATAC the same as above

[4] = tested on: Lactobacillus acidophilus; test: Effect on the intestinal bacterial colonies: L. acidophilus in feces; type: in vivo, Lactobacillus acidophilus (feces of female ICR-JCL mice); settings: after administration; 100 mg/kg orally once a day, 2 days; before administration 9.0
Protocol: as §3, §4, §5
(4) Lactobacillus acidophilus
LBS anaerobic, 37° C., 5 days

Lactobacillus bifidus = test: Effect on the intestinal bacterial colonies: L. bifidus in feces; type: in vivo, Lactobacillus bifidus (feces of female ICR-JCL mice); settings: after administration; 100 mg/kg orally once a day, 2 days; before administration 8.5
Protocol: as §3, §4, §5
(5) Lactobacillus bifidus

Bacteroides sp. = test: Effect on the intestinal bacterial colonies: Bacteroides sp. in feces; type: in vivo, Bacteroides sp. (feces of female ICR-JCL mice); settings: after administration; 100 mg/kg orally once a day, 2 days; before administration 8.3
Protocol: as §3, §4, §5

| Compound | minimal inhibitory concentration (MIC), S. aureus IAM 1011 [1] | minimal inhibitory concentration (MIC), S. marcescens IAM 1223 [2] | remaining at 20 min (in vitro) | Rate of retaining the antibacterial activity (in words) [3] | Logarithmic value of the number of bacterial cells per one gram of feces, (1) E. coli (Escherichia coli) | Logarithmic value of the number of bacterial cells per one gram of feces, (2) P. aeruginosa (Pseudomonas aeruginosa) | Logarithmic value of the number of bacterial cells per one gram of feces, (3) Streptococcus sp. (Streptococcus sp.) | Logarithmic value of the number of bacterial cells per one gram of feces, (4) L. acidophilus [4] | Logarithmic value of the number of bacterial cells per one gram of feces, (5) L. bifidus (Lactobacillus bifidus) | Logarithmic value of the number of bacterial cells per one gram of feces, (6) Bacteroides sp. (Bacteroides sp.) |
| --- | --- | --- | --- | --- | --- | --- | --- | --- | --- | --- |
| CO/N=C(\C(=O)N[C@@H]1C(=O)N2C(C(=O)O)=C(CSc3nnc(C)s3)CS[C@H]12)c1csc(NC(=O)C(Cl)Cl)n1 [Example 1, 7β-[2-(2-dichloroacetamido-4-thiazolyl)-(Z)-2-methoxyiminoacetamido]-3-[(2-methyl-1,3,4-thiadiazol-5-yl)thiomethyl]-3-cephem-4-carboxylic acid] | 0.78 | 0.4 | 90% | superior to a conventional commerciallized cephalosporin derivative | – | – | – | – | – | – |
| CO/N=C(\C(=O)N[C@@H]1C(=O)N2C(C(=O)OCOC(=O)C(C)(C)C)=C(CSc3nnc(C)s3)CS[C@H]12)c1csc(NC(=O)C(Cl)Cl)n1 [Example 2] | ≥ 100 | ≥ 100 | – | the same result as that obtained in using the present compound produced in Example 1 | 6.4 Logarithmic value of the number of bacterial cells per one gram of feces | < 3.0 Logarithmic value of the number of bacterial cells per one gram of feces | 7.0 Logarithmic value of the number of bacterial cells per one gram of feces | 8.9 Logarithmic value of the number of bacterial cells per one gram of feces | 8.5 Logarithmic value of the number of bacterial cells per one gram of feces | 8.2 Logarithmic value of the number of bacterial cells per one gram of feces |
